Laboratory results from patent US11207312B2, “Metallo-beta-lactamase inhibitors and methods of use thereof” (priority 2017, dated 2021).
Where two headings read alike, the source gives them in different places.

Columns and labels:
VIM-2 = VIM-2 (Escherichia coli, UniProt Q5U7L7); assay: biochemical
NDM-1 = NDM-1 (Klebsiella pneumoniae, UniProt C7C422); assay: biochemical; assay type: biochemical; conditions: CCF2-FA fluorescence assay, 2 hours at 25° C.
Method in brief: (§1)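 In 100 mM phosphate pH 7 containing Tween-20 and ZnSO4, NDM-1 (1 pM), IMP-1 (2 pM) or VIM-1 (30 pM) hydrolysed 1.25 μM CCF2-FA over 2 hours at 25° C with inhibitor present. Readout was 405/460 nm fluorescence.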

VIM-1 = VIM-1 (Pseudomonas aeruginosa (strain ATCC 15692 / DSM 22644 / CIP 104116 / JCM 14847 / LMG 12228 / 1C / PRS 101 / PAO1), UniProt A0A0F7KYQ8); assay: biochemical; conditions: CCF2-FA fluorescence assay, 2 hours at 25° C.; read-out: VIM1 IC50
Method in brief: as §1

IMP-1 = IMP-1 (Serratia marcescens, UniProt P52699); assay: biochemical; conditions: CCF2-FA fluorescence assay, 2 hours at 25° C.; read-out: IMP1 IC50
Method in brief: as §1

[1] = system: P. aeruginosa MB9799 (efflux-, IMP-1 plasmid); assay type: cell-based, Pseudomonas aeruginosa; conditions: efflux − (MB9799) strain; imipenem at 2 μg/mL; in the presence of a class A, C, D serine β-lactamase inhibitor closely related to relebactam
Method in brief: (§2)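 PAO1-derived isogenic pair (oprD+, inducible AmpC), efflux+ MB5919 or efflux− MB5890 parent, carrying an electroporated IMP-1 plasmid from a clinical isolate. Microbroth MIC with fixed imipenem and/or ceftazidime (usually CLSI breakpoint) plus fixed class A/C inhibitor; MBL inhibitor serially titrated, concentration restoring susceptibility recorded.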

[2] = system: P. aeruginosa MB9798 (efflux+, IMP-1 plasmid); conditions: for MB9798 MITC95 P. aeruginosa uM Efflux WT: efflux + (MB9798) strain, imipenem at 2 μg/mL, in the presence of a class A, C, D serine β-lactamase inhibitor closely related to relebactam; for Efflux ratio: fold difference between efflux+ (MB9798) and efflux− (MB9799) strains
Method in brief: as §2

[3] = system: Klebsiella pneumoniae expressing VIM-1 (IHMA599644); assay type: cell-based; conditions: with imipenem 1 μg/ml; 95% inhibition of bacterial growth
Method in brief: (§3)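 Imipenem 1 μg/ml + inhibitor titration in cation-adjusted MHB (1.1× stock medium); overnight-cultured colonies suspended in saline, diluted 1:100. 35 °C, 22–24 h; absorbance read. MITC95 = lowest compound conc giving 95% growth inhibition.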

[4] = system: Escherichia coli expressing NDM-1 (CLB30016); assay type: cell-based; conditions: with imipenem 1 μg/ml; 95% inhibition of bacterial growth
Method in brief: as §3

[5] = system: Serratia marcescens expressing IMP-1 (CL5741); assay type: cell-based; conditions: with imipenem 1 μg/ml; 95% inhibition of bacterial growth
Method in brief: as §3

[6] = CCF2-FA fluorescence assay, read-out: VIM2 IC50

NDM-1, sequence (C7C422 whole entry, looked up, species assumed): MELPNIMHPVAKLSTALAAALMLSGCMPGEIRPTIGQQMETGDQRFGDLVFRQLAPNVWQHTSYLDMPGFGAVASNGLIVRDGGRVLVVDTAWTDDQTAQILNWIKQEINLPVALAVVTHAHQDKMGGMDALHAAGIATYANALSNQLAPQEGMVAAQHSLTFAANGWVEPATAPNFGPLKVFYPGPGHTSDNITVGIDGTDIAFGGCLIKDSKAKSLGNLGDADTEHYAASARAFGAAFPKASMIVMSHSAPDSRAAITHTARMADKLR
IMP-1, sequence (P52699 whole entry, looked up, species assumed): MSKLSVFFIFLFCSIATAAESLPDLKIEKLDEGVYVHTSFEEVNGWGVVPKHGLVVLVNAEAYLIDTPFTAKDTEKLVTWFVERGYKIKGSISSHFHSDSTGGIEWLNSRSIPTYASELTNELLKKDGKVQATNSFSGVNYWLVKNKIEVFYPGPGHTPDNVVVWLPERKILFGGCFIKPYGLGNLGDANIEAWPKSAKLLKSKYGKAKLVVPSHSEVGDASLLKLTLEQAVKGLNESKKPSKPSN

Row | Structure (SMILES) | IC50 (VIM-2; [6]) | IC50 (NDM-1) | IC50 (VIM-1) | IC50 (IMP-1) | MB9799 MITC95 P. aeruginosa uM Efflux Mutant [1] | MB9798 MITC95 P. aeruginosa uM Efflux WT [2] | Efflux ratio [2] | IHMA599644 K. pneumoniae MITC95 VIM [3] | CLB30016 E. coli MITC95 NDM [4] | CL5741 S. marcescens MITC95 IMP [5] | IC50 (VIM-2; VIM2 IC50, CCF2-FA fluorescence assay)
1 | NCCC1CCN(c2ccc(S(=O)(=O)N[C@@H](CN)CO)c(S(N)(=O)=O)c2-c2nn[nH]n2)CC1 [Example 187, (S)-N1-(1-amino-3-hydroxypropan-2-yl)-4-(4-(2-aminoethyl)piperidin-1-yl)-3-(2H-tetrazol-5-yl)benzene-1,2-disulfonamide] | 0.49 nM | 0.13 nM | 0.03 nM | 0.24 nM | 0.39 µM | 0.39 µM | 1.00 | 0.78 µM | 0.78 µM | 0.78 µM | –
2 | NCCC1CCN(c2ccc(S(=O)(=O)N[C@H](CN)CO)c(S(N)(=O)=O)c2-c2nn[nH]n2)CC1 [Example 188, (R)-N1-(1-amino-3-hydroxypropan-2-yl)-4-(4-(2-aminoethyl)piperidin-1-yl)-3-(2H-tetrazol-5-yl)benzene-1,2-disulfonamide] | 4.85 nM | 2.86 nM | 0.13 nM | 3.68 nM | 0.78 µM | 0.78 µM | 1.00 | 1.56 µM | 0.78 µM | 0.78 µM | –
3 | NCC1CCN(c2ccc(S(=O)(=O)N[C@@H](CN)CO)c(S(N)(=O)=O)c2-c2nn[nH]n2)CC1 [Example 189, (S)-N1-(1-amino-3-hydroxypropan-2-yl)-4-(4-(aminomethyl)piperidin-1-yl)-3-(2H-tetrazol-5-yl)benzene-1,2-disulfonamide] | 2.31 nM | 0.3 nM | 0.06 nM | 0.77 nM | 0.39 µM | 0.78 µM | 2.00 | 0.78 µM | 0.39 µM | 0.78 µM | –
4 | NCCNS(=O)(=O)C1CCN(c2ccc(S(=O)(=O)NC[C@H](O)CN)c(S(N)(=O)=O)c2-c2nn[nH]n2)CC1 [Example 190, (R)—N1-(3-amino-2-hydroxypropyl)-4-(4-(N-(2-aminoethyl)sulfamoyl)piperidin-1-yl)-3-(2H-tetrazol-5-yl)benzene-1,2-disulfonamide] | 0.85 nM | 0.67 nM | 0.09 nM | 0.61 nM | 0.78 µM | 0.78 µM | 1.00 | 1.56 µM | 3.13 µM | 0.78 µM | –
5 | NS(=O)(=O)c1c(S(=O)(=O)N[C@@H]2CCNC2)ccc(N2CCNC2=S)c1-c1nn[nH]n1 [Example 191, (R)—N1-(pyrrolidin-3-yl)-3-(2H-tetrazol-5-yl)-4-(2-thioxoimidazolidin-1-yl)benzene-1,2-disulfonamide] | 1.15 nM | 0.94 nM | 0.21 nM | 25.2 nM | 1.56 µM | 6.25 µM | 4.00 | 3.13 µM | 0.78 µM | 1.56 µM | –
6 | NC[C@@H](O)CNS(=O)(=O)c1ccc(N[C@H]2C[C@H](N)C2)c(-c2nnn[nH]2)c1S(N)(=O)=O [Example 192, (R)—N1-(3-amino-2-hydroxypropyl)-4-((3-aminocyclobutyl)amino)-3-(1H-tetrazol-5-yl)benzene-1,2-disulfonamide] | – | 66.3 nM | 67.5 nM | 97 nM | 3.13 µM | 6.25 µM | 2.00 | 6.25 µM | 1.56 µM | 3.13 µM | 200 nM
7 | NCCCC1CCN(c2ccc(S(=O)(=O)NC[C@H](O)CN)c(S(N)(=O)=O)c2-c2nn[nH]n2)CC1 [Example 193, (R)-N1-(3-amino-2-hydroxypropyl)-4-(4-(3-aminopropyl)piperidin-1-yl)-3-(2H-tetrazol-5-yl)benzene-1,2-disulfonamide] | 0.75 nM | 0.48 nM | 0.075 nM | 0.67 nM | 0.78 µM | 0.78 µM | 1.00 | 1.56 µM | 1.56 µM | 1.56 µM | –
8 | NC[C@@H](O)CNS(=O)(=O)c1ccc(N2CCC(N)CC2)c(-c2nn[nH]n2)c1S(N)(=O)=O [Example 194, (R)-N1-(3-amino-2-hydroxypropyl)-4-(4-aminopiperidin-1-yl)-3-(2H-tetrazol-5-yl)benzene-1,2-disulfonamide] | 14.9 nM | 26.5 nM | 0.17 nM | 16 nM | 0.78 µM | 0.78 µM | 1.00 | 0.78 µM | 0.39 µM | 0.20 µM | –
9 | NC[C@@H](O)CNS(=O)(=O)c1ccc(N2CC[C@H](N)[C@H](F)C2)c(-c2nn[nH]n2)c1S(N)(=O)=O [Example 195, N1-((R)-3-amino-2-hydroxypropyl)-4-((3R,4S)-4-amino-3-fluoropiperidin-1-yl)-3-(2H-tetrazol-5-yl)benzene-1,2-disulfonamide] | 2.86 nM | 1.51 nM | 0.14 nM | 4.27 nM | 0.78 µM | 0.78 µM | 1.00 | 0.39 µM | 0.20 µM | 0.20 µM | –
10 | NC(=O)[C@@H]1CN(c2ccc(S(=O)(=O)N[C@@H]3CCNC3)c(S(N)(=O)=O)c2-c2nn[nH]n2)CCN1 [Example 196, (S)-4-(4-(N—((R)-pyrrolidin-3-yl)sulfamoyl)-3-sulfamoyl-2-(2H-tetrazol-5-yl)phenyl)piperazine-2-carboxamide] | 1.7 nM | 0.72 nM | 0.44 nM | 3.26 nM | 0.78 µM | 2.34 µM | 3.00 | 1.17 µM | 0.29 µM | 0.20 µM | –
11 | NC(=O)[C@H]1CN(c2ccc(S(=O)(=O)N[C@@H]3CCNC3)c(S(N)(=O)=O)c2-c2nn[nH]n2)CCN1 [Example 197, (R)-4-(4-(N-((R)-pyrrolidin-3-yl)sulfamoyl)-3-sulfamoyl-2-(2H-tetrazol-5-yl)phenyl)piperazine-2-carboxamide] | 1.89 nM | 1.44 nM | 0.74 nM | 9.95 nM | 1.56 µM | 3.13 µM | 2.00 | 1.56 µM | 0.29 µM | 0.39 µM | –
12 | N[C@@H]1CCN(c2ccc(S(=O)(=O)N[C@@H]3CCNC3)c(S(N)(=O)=O)c2-c2nn[nH]n2)C[C@@H]1F [Example 198, 4-((3S,4R)-4-amino-3-fluoropiperidin-1-yl)-N1-((R)-pyrrolidin-3-yl)-3-(2H-tetrazol-5-yl)benzene-1,2-disulfonamide] | 11 nM | 1.82 nM | 0.2 nM | 5.62 nM | 0.78 µM | 0.78 µM | 1.00 | 0.39 µM | 0.39 µM | 0.20 µM | –
